Results reported in US20220071925A1, “MEDICINAL COMPOSITION FOR PREVENTING OR TREATING BONE DISEASES” (GEXVAL INC., priority 2019, published 2022).

Tests used:
R264.7 cells = test: Combined effect of compounds on LPS-stimulated mouse macrophage-derived cells, gene expression by RNA sequencing (Test Example 2); type: cell-based; conditions: LPS 100 ng/mL 24 h, free fatty acid (stearic acid) 10 μM, Fasiglifam 10 μM, alone or in combination
Method: The combined effect of the compounds on the change when macrophage cells were stimulated by lipopolysaccharide (LPS) derived from bacteria was examined by integrated gene expression analysis using RNA next-generation sequencing. […].7 cells purchased from KAC Co., Ltd. were used in the test. The cells were suspended in DMEM with 10% serum, seeded in a 24-well plate at a concentration of 1.6×10^5 cells/well, and cultured at 37° C. under a 5% CO2 condition. 30 minutes prior to addition of LPS, a free fatty acid at 10 μM and Fasiglifam at 10 μM were added alone or in combination. Stearic acid was used as the free fatty acid. After culturing for 30 minutes after addition of the compound, LPS was added to each well at a concentration of 100 ng/mL. PBS of the same amount as LPS was added to a non-stimulated control group. After culturing for 24 hours with the addition of LPS, the medium was removed, and total RNA was extracted using RNeasy (QIAGEN). mRNA was recovered from the total RNA to prepare a library, and RNA sequencing (Illumina Hiseq) was performed. Samples from the following five groups were sequenced, and the expression level of each gene was estimated from the obtained read count data. […] Further, these expression-fluctuated genes were subjected to a pathway analysis to examine their association with the disease.

GPR40 = GPR40 (Homo sapiens, UniProt O14842); conditions: cited from earlier work
osteoclasts [1] = conditions: caused by interaction of osteoclasts (RANK) with osteoblasts (RANKL); cited from earlier work
osteoclasts [2] = conditions: action of GW9508 on GPR40; cited from earlier work
[3] = in vivo; cited from earlier work

GPR40, sequence (O14842 whole entry, species assumed): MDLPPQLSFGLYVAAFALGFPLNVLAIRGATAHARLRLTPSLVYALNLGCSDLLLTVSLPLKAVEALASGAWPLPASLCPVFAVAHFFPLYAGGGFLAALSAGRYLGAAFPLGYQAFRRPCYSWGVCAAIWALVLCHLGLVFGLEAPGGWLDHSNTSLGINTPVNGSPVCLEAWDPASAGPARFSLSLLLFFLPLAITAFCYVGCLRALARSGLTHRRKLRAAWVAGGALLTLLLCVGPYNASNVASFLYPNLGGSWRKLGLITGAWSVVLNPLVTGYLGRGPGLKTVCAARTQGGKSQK

## CCCCCCCCCCCCCCCCCC(=O)O [Fatty acid, Stearic acid]
R264.7 cells
  AAAS expression level: 0
  BCL2L1 expression level: 0
  C3AR1 expression level: 0
  CCL2 expression level: 0
  CCL3 expression level: 0
  CCL4 expression level: 0
  CD36 expression level: 0
  CSF1R expression level: 0
  CSF3 expression level: 0
  DUSP5 expression level: 0
  EIF4B expression level: 0
  EIF4G2 expression level: 0
  GBP7 expression level: 0
  GRIN1 expression level: 0
  IL7R expression level: 0
  IP6K2 expression level: 0
  LYN expression level: 0
  NF1 expression level: 0
  NOS2 expression level: 0
  PIK3CD expression level: 0
  PIM1 expression level: 0
  PIP5K1C expression level: 0
  PLAUR expression level: 0
  PLEKHO2 expression level: 0
  PPP2CA expression level: 0
  PSMA6 expression level: 0
  PSMA7 expression level: 0
  PSMC2 expression level: 0
  PSMD13 expression level: 0
  PYGB expression level: 0
  RASGRP3 expression level: 0
  SDCBP expression level: 0
  SMPD1 expression level: 0
  SUMO1 expression level: 0
  TNF expression level: 0
  TNFRSF1B expression level: 0
  TNFSF8 expression level: 0
  TNRC6B expression level: 0

## Cc1cc(OCCCS(C)(=O)=O)cc(C)c1-c1cccc(COc2ccc3c(c2)OC[C@H]3CC(=O)O)c1 [Fasiglifam, [(3S)-6-({2′,6′-dimethyl-4′-[3-(methylsulfonyl)propoxy]biphenyl-3-yl}methoxy)-2,3-dihydro-1-benzofuran-3-yl]acetic acid]
R264.7 cells
  AAAS expression level: 0
  BCL2L1 expression level: 0
  C3AR1 expression level: 0
  CCL2 expression level: 0
  CCL3 expression level: 0
  CCL4 expression level: 0
  CD36 expression level: 0
  CSF1R expression level: 0
  CSF3 expression level: 0
  DUSP5 expression level: 0
  EIF4B expression level: 0
  EIF4G2 expression level: 0
  GBP7 expression level: 0
  GRIN1 expression level: 0
  IL7R expression level: 0
  IP6K2 expression level: 0
  LYN expression level: 0
  NF1 expression level: 0
  NOS2 expression level: 0
  PIK3CD expression level: 0
  PIM1 expression level: 0
  PIP5K1C expression level: 0
  PLAUR expression level: 0
  PLEKHO2 expression level: 0
  PPP2CA expression level: 0
  PSMA6 expression level: 0
  PSMA7 expression level: 0
  PSMC2 expression level: 0
  PSMD13 expression level: 0
  PYGB expression level: 0
  RASGRP3 expression level: 0
  SDCBP expression level: 0
  SMPD1 expression level: 0
  SUMO1 expression level: 0
  TNF expression level: 0
  TNFRSF1B expression level: 0
  TNFSF8 expression level: 0
  TNRC6B expression level: 0
GPR40
  agonist selectivity GPR40 versus GPR120: selective agonist for GPR40

## O=C(O)CCc1ccc(NCc2cccc(Oc3ccccc3)c2)cc1 [GW9508]
GPR40
  agonist selectivity GPR40 versus GPR120: dual agonist for GPR40 and GPR120
Osteoclasts [1]
  formation of osteoclasts (differentiation and maturation into osteoclasts): suppressing the formation of osteoclasts
Osteoclasts [2]
  differentiation into osteoclasts: the differentiation into osteoclasts is suppressed
[3]
  bone loss due to ovariectomy: bone loss due to ovariectomy can be prevented
